# Read-outs that look alike come from different tables or passages of the source.
# How the values were obtained:
# [1] = NETTER-2 worst post-baseline biochemistry abnormalities based on CTC grades (Safety Set); assay type: in vivo, human; conditions: randomized treatment period; for Worst post-baseline abnormality: Alanine Aminotransferase (U/L)-Increase / Worst post-baseline abnormality: Albumin (g/L)-Decrease / Worst post-baseline abnormality: Alkaline Phosphatase (U/L)-Increase / Worst post-baseline abnormality: Aspartate Aminotransferase (U/L)-Increase / Worst post-baseline abnormality: Bilirubin (umol/L)-Increase / Worst post-baseline abnormality: Calcium Corrected (mmol/L)-Increase / Worst post-baseline abnormality: Creatinine (umol/L)-Increase / Worst post-baseline abnormality: Potassium (mmol/L)-Decrease / Worst post-baseline abnormality: Potassium (mmol/L)-Increase / Worst post-baseline abnormality: Sodium (mmol/L)-Decrease / Worst post-baseline abnormality: Sodium (mmol/L)-Increase: Safety Set
# Description: The laboratory assessments require that blood samples for hematology and blood chemistry, and a urine sample for urinalysis are taken. Laboratory assessments will be performed at the investigational site.
# Blood tests performed 4 weeks after any treatment cannot serve as baseline values for the next treatment.
# All laboratory data will be listed by treatment group, subject, and visit/time and if normal ranges are available abnormalities will be flagged. Summary statistics will be provided by treatment and visit/time. Shift tables using the low/normal/high/(low and high) classification will be used to compare baseline to the worst on-treatment value.
# Grading of laboratory values will be assigned programmatically as per NCI Common Terminology Criteria for Adverse Events (CTCAE) version 5.0 or current version. The calculation of CTCAE grades will be based on the observed laboratory values only, clinical assessments will not be taken into account.
# The following summaries will be generated separately for hematology, and biochemistry tests: • 1. Listing of all laboratory data with values flagged to show the corresponding CTCAE grades if applicable and the classifications relative to the laboratory normal ranges • 2. For laboratory tests where grades are defined by CTCAE, • 3. Worst post-baseline CTCAE grade (regardless of the baseline status). Each subject will be counted only once for the worst grade observed post-baseline. • 4. Shift tables using CTCAE grades to compare baseline to the worst on-treatment value • 5. For laboratory tests where grades are not defined by CTCAE, • 6. Shift tables using the low/normal/high/(low and high) classification to compare baseline to the worst on-treatment value.
# [2] = All grades, randomized treatment period, Safety Set
# [3] = Grade >=3, randomized treatment period, Safety Set
# [4] = all grades, randomized treatment period
# [5] = most frequent AEs, summary table
compound,measurement,setting,value
"C[C@@H](O)[C@@H]1NC(=O)[C@H](CCCCN)NC(=O)[C@@H](Cc2c[nH]c3ccccc23)NC(=O)[C@H](Cc2ccccc2)NC(=O)[C@@H](NC(=O)[C@H](N)Cc2ccccc2)CSSC[C@@H](C(=O)N[C@H](CO)[C@@H](C)O)NC1=O [Octreotide LAR, octreotide]",Worst post-baseline abnormality: Alanine Aminotransferase (U/L)-Increase,[1]; All grades (CTCAE v5.0),38 (52.1) n (%)
same,Worst post-baseline abnormality: Albumin (g/L)-Decrease,[1]; All grades (CTCAE v5.0),17 (23.3) n (%)
same,Worst post-baseline abnormality: Alkaline Phosphatase (U/L)-Increase,[1]; All grades (CTCAE v5.0),40 (54.8) n (%)
same,Worst post-baseline abnormality: Aspartate Aminotransferase (U/L)-Increase,[1]; All grades (CTCAE v5.0),40 (54.8) n (%)
same,Worst post-baseline abnormality: Bilirubin (umol/L)-Increase,[1]; All grades (CTCAE v5.0),17 (23.3) n (%)
same,Worst post-baseline abnormality: Calcium Corrected (mmol/L)-Increase,[1]; All grades (CTCAE v5.0),8 (11.0) n (%)
same,Worst post-baseline abnormality: Creatinine (umol/L)-Increase,[1]; All grades (CTCAE v5.0),15 (20.5) n (%)
same,Worst post-baseline abnormality: Potassium (mmol/L)-Decrease,[1]; All grades (CTCAE v5.0),10 (13.7) n (%)
same,Worst post-baseline abnormality: Potassium (mmol/L)-Increase,[1]; All grades (CTCAE v5.0),16 (21.9) n (%)
same,Worst post-baseline abnormality: Sodium (mmol/L)-Decrease,[1]; All grades (CTCAE v5.0),12 (16.4) n (%)
same,Worst post-baseline abnormality: Sodium (mmol/L)-Increase,[1]; All grades (CTCAE v5.0),6 (8.2) n (%)
same,Worst post-baseline abnormality: Alanine Aminotransferase (U/L)-Increase,[1]; Grade 3/4 (CTCAE v5.0),3 (4.1) n (%)
same,Worst post-baseline abnormality: Albumin (g/L)-Decrease,[1]; Grade 3/4 (CTCAE v5.0),1 (1.4) n (%)
same,Worst post-baseline abnormality: Alkaline Phosphatase (U/L)-Increase,[1]; Grade 3/4 (CTCAE v5.0),3 (4.1) n (%)
same,Worst post-baseline abnormality: Aspartate Aminotransferase (U/L)-Increase,[1]; Grade 3/4 (CTCAE v5.0),5 (6.8) n (%)
same,Worst post-baseline abnormality: Bilirubin (umol/L)-Increase,[1]; Grade 3/4 (CTCAE v5.0),4 (5.5) n (%)
same,Worst post-baseline abnormality: Calcium Corrected (mmol/L)-Increase,[1]; Grade 3/4 (CTCAE v5.0),1 (1.4) n (%)
same,Worst post-baseline abnormality: Creatinine (umol/L)-Increase,[1]; Grade 3/4 (CTCAE v5.0),1 (1.4) n (%)
same,Worst post-baseline abnormality: Potassium (mmol/L)-Decrease,[1]; Grade 3/4 (CTCAE v5.0),2 (2.7) n (%)
same,Worst post-baseline abnormality: Potassium (mmol/L)-Increase,[1]; Grade 3/4 (CTCAE v5.0),3 (4.1) n (%)
same,Worst post-baseline abnormality: Sodium (mmol/L)-Decrease,[1]; Grade 3/4 (CTCAE v5.0),1 (1.4) n (%)
same,Worst post-baseline abnormality: Sodium (mmol/L)-Increase,[1]; Grade 3/4 (CTCAE v5.0),0 n (%)
same,Grade 3/4 biochemical lab abnormality: GGT increase,[1],28.8%
same,Grade 3/4 biochemical lab abnormality: aspartate aminotransferase increase,[1],6.8%
same,Grade 3/4 biochemical lab abnormality: bilirubin increase,[1],5.5%
same,"AEs leading to discontinuation of Any Treatment (Lutathera, Octreotide)",[2],2 (2.7) n (%)
same,AEs leading to discontinuation of Octreotide,[2],2 (2.7) n (%)
same,"AEs leading to dose interruption of Any Treatment (Lutathera, Octreotide)",[2],11 (15.1) n (%)
same,AEs leading to dose interruption of Octreotide,[2],11 (15.1) n (%)
same,"AEs leading to dose reduction of Any Treatment (Lutathera, Octreotide)",[2],1 (1.4) n (%)
same,AEs leading to dose reduction of Octreotide,[2],1 (1.4) n (%)
same,Adverse event: Abdominal pain,[2],20 (27.4) n (%)
same,Adverse event: Alanine aminotransferase increased,[2],10 (13.7) n (%)
same,Adverse event: Alopecia,[2],1 (1.4) n (%)
same,Adverse event: Anaemia,[2],5 (6.8) n (%)
same,Adverse event: Aspartate aminotransferase increased,[2],8 (11.0) n (%)
same,Adverse event: Asthenia,[2],9 (12.3) n (%)
same,Adverse event: COVID-19,[2],10 (13.7) n (%)
same,Adverse event: Constipation,[2],6 (8.2) n (%)
same,Adverse event: Decreased appetite,[2],7 (9.6) n (%)
same,Adverse event: Diarrhoea,[2],25 (34.2) n (%)
same,Adverse event: Gamma-glutamyltransferase increased,[2],8 (11.0) n (%)
same,Adverse event: Headache,[2],5 (6.8) n (%)
same,Adverse event: Hyperglycaemia,[2],11 (15.1) n (%)
same,Adverse event: Lymphocyte count decreased,[2],0 n (%)
same,Adverse event: Oedema peripheral,[2],6 (8.2) n (%)
same,Adverse event: Platelet count decreased,[2],4 (5.5) n (%)
same,Adverse event: Vomiting,[2],6 (8.2) n (%)
same,Adverse event: Weight increased,[2],5 (6.8) n (%)
same,Adverse event: White blood cell count decreased,[2],3 (4.1) n (%)
same,Adverse events,[2],69 (94.5) n (%)
same,Adverse events Related to Any Treatment,[2],43 (58.9) n (%)
same,Adverse events Related to Octreotide,[2],43 (58.9) n (%)
same,Adverse events: Number of subjects with at least one event,[2],69 (94.5) n (%)
same,"AEs leading to discontinuation of Any Treatment (Lutathera, Octreotide)",[3],2 (2.7) n (%)
same,AEs leading to discontinuation of Octreotide,[3],2 (2.7) n (%)
same,"AEs leading to dose interruption of Any Treatment (Lutathera, Octreotide)",[3],5 (6.8) n (%)
same,AEs leading to dose interruption of Octreotide,[3],5 (6.8) n (%)
same,"AEs leading to dose reduction of Any Treatment (Lutathera, Octreotide)",[3],1 (1.4) n (%)
same,AEs leading to dose reduction of Octreotide,[3],1 (1.4) n (%)
same,Adverse event: Abdominal pain,[3],3 (4.1) n (%)
same,Adverse event: Alanine aminotransferase increased,[3],2 (2.7) n (%)
same,Adverse event: Alopecia,[3],0 n (%)
same,Adverse event: Anaemia,[3],1 (1.4) n (%)
same,Adverse event: Aspartate aminotransferase increased,[3],2 (2.7) n (%)
same,Adverse event: Asthenia,[3],0 n (%)
same,Adverse event: COVID-19,[3],0 n (%)
same,Adverse event: Constipation,[3],0 n (%)
same,Adverse event: Decreased appetite,[3],0 n (%)
same,Adverse event: Diarrhoea,[3],1 (1.4) n (%)
same,Adverse event: Gamma-glutamyltransferase increased,[3],2 (2.7) n (%)
same,Adverse event: Headache,[3],0 n (%)
same,Adverse event: Hyperglycaemia,[3],2 (2.7) n (%)
same,Adverse event: Lymphocyte count decreased,[3],0 n (%)
same,Adverse event: Oedema peripheral,[3],1 (1.4) n (%)
same,Adverse event: Platelet count decreased,[3],0 n (%)
same,Adverse event: Vomiting,[3],1 (1.4) n (%)
same,Adverse event: Weight increased,[3],0 n (%)
same,Adverse event: White blood cell count decreased,[3],0 n (%)
same,Adverse events,[3],20 (27.4) n (%)
same,Adverse events Related to Any Treatment,[3],3 (4.1) n (%)
same,Adverse events Related to Octreotide,[3],3 (4.1) n (%)
same,Adverse events: Number of subjects with at least one event,[3],20 (27.4) n (%)
same,adverse event by preferred term: abdominal pain,[4],27.4%
same,adverse event by preferred term: diarrhoea,[4],34.2%
same,Incidence of AEs: Abdominal pain,[5],20 (27.4) (%)
same,Incidence of AEs: Diarrhoea,[5],25 (34.2) (%)
same,AEs leading to discontinuation of Lutathera and/or Octreotide,randomized treatment period,2.7%
same,AEs leading to discontinuation of Octreotide,randomized treatment period,2.7%
same,Any AEs,randomized treatment period,94.5%
same,Grade 3/4 AE: GGT increased,randomized treatment period,2.7%
same,Grade 3/4 AE: Lymphocyte count decreased,randomized treatment period,0%
same,Grade 3/4 AE: abdominal pain,randomized treatment period,4.1%
same,Grade 3/4 AE: small intestinal obstruction,randomized treatment period,0%
same,Grade ≥3 AEs,randomized treatment period,27.4%
same,"Grade ≥3 AEs, Treatment-related",randomized treatment period,4.1%
